# Test results taken from patent US4338331A, “Isoindoline derivative and a therapeutic composition thereof” (priority 1979, dated 1982).
# Where “and” joins values, the source holds several entries; their conditions need not be identical. Identical values can stand only once. Entries after “also recorded” stand apart in the source; their conditions may differ.
# Assays:
# female Wistar rats [1] = assay: Effect on spontaneous diuresis (TABLE 3); type: in vivo, Wistar rat; conditions: 5 mg/kg oral; for Excreted sodium/potassium ratio: 12 h; for Potassium excretion / Sodium excretion: spontaneous diuresis
# Experimental: These investigations were carried out on Wistar rats of both sexes, having a body weight which is specified in each case in the relative tables, which compare the results with Indapamide. Both the CM/1 and the Indapamide were administered orally after being suitably dissolved in the following solvent:
# (§1) The controls were treated with an equal volume of solvent. The experiments were carried out on animals which had regularly fasted for at least 12 hours, but had free access to water.
# (§2) The sodium and potassium in the urine were determined by a photometric method.
# Finally, the effect on the new product of spontaneous diuresis was determined.
# These investigations were carried out on 15 female Wistar rats having a body weight varying from 230 to 260 g, and divided at random into three groups of 5. The animals were kept in individual metabolic cages overnight for a period of 12 hours in order to collect the urine spontaneously excreted. One group was treated as usual with 1 ml/kg of solvent by means of a gastric probe, and the other two were treated respectively with 5 mg/kg of Indapamide and 5 mg/kg of CM/1. The sodium and potassium were analysed as usual in the urine collected.
# male Wistar rat = assay: Chronic (subacute) toxicity, 28 days oral, male rat; type: in vivo; conditions: 20 mg/kg and 40 mg/kg, printed '48 consecutive days'
# male rats = assay: Diuretic and saluretic activity: excretion of a load of distilled water (TABLE 2); type: in vivo, Wistar rat; conditions: 5 mg/kg oral + aqueous load
# Experimental: (§3) Both the CM/1 and the Indapamide were administered orally after being suitably dissolved in the following solvent:
# as §1, §2
# The rats were then immediately placed in individual metabolic cages. The urine was collected over 4 hours. The quantity has been expressed in the usual manner as a percentage of the volume administered.
# Sodium and potassium were also analysed, and these have been expressed as mEq/4h.
# After two days, in the preceding manner, the same rats were treated with Indapamide, and after a further two days with the product CM/1. In the interval between one test and the other, the rats were housed and fed in the normal manner. The dose used for both compounds was the same as previously, i.e. 5 mg/kg.
# Swiss mouse = assay: Acute toxicity, oral, mouse; type: in vivo
# Experimental: (§4) Acute toxicity was determined orally in the Wister rat and in the Swiss mouse of both sexes.
# (§5) The animals were kept fasting for at least 12 hours before the tests but whith free access to water. The compound was suspended homogeneously in gum arabic mucilage and was administered, at the set doses, in a volume of 40 ml/kg by means of a gastro-oesophageal probe.
# (§6) Each dose was tested on ten animals, of which five were male and five female. The weight of the rats varied from 300 to 350 g for the males and from 220 g to 250 g for the females. The weight of the mice, of both sexes, varied from 28 g to 35 g.
# (§7) The observation lasted ten days.
# [2] = Acute toxicity, oral, mouse; type: in vivo; conditions: in vivo, mouse, read-out: DL50
# Experimental: as §4, §5, §6, §7
# female Wistar rats [3] = assay: Diuretic and saluretic activity: excretion of an aqueous saline load (TABLE 1); type: in vivo, Wistar rat; conditions: 5 mg/kg oral
# Experimental: as §3, §1, §2
# The effect on the excretion of an aqueous saline load was first checked. 18 female Wistar rats were used divided into three groups, one of 8 and two of 5, and these were treated in the following manner:
# GROUP A: CONTROLS 1 ml of solvent made up to 50 ml with 0.9% sodium chloride solution, administered by gastric probe, per kg of body weight (=50 ml/kg in terms of volume);
# GROUP B: INDAPAMIDE 5 mg/kg in 1 ml/kg of solvent made up to 50 ml/kg with sodium chloride solution, administered by gastric probe;
# GROUP C: CM/1,5 mg/kg using the same method as for the Indapamide.
# The rats were placed immediately in individual metabolic cages for collecting the urine during the three hours subsequent to the load. The quantity of urine excreted is given as a percentage of the quantity administered. The sodium and potassium are expressed in mEq/3h.
# Values of P less than 0.05 have been considered significant.
# [4] = system: rat with spontaneous hypertension (SHR); assay: Hypotensive activity: arterial pressure of the rat with spontaneous hypertension (TABLE 4); type: in vivo, SHR male rats; conditions: 1.2 mg/kg/day oral
# Experimental: The effects of subacute oral treatment with CM/1 on the arterial pressure of the rat with spontaneous hypertension (SHR) were followed on 10 genetically hypertensive (SHR) male rats obtained from Charles River. They were divided at random into two groups of 5 each, and treated in the following manner:
# GROUP A: CONTROLS--10% gum arabic, 5 ml/kg/day by oral administration using a gastro-oesophageal probe;
# GROUP B: CM/1--1.2 mg/5 ml of gum arabic/kg/day by oral administration using a gastro-oesophageal probe.
# The treatment was carried out for 28 consecutive days. The arterial pressure was recorded at regular intervals by the bloodless method, using the "BP Recorder 8005" apparatus of "W+W Electronic".
# The measurement was made in the following manner: the tail of the animals was carefully depilated and then inserted into a sleeve of suitable diameter connected by a tube to a pump and a pressure gauge. The tail was then inserted into a circular transducer, which was connected to a pulse counter. When the apparatus was switched on, the pressure increased in the sleeve until the blood flow was arrested.
# The pressures were now read from the pressure gauge.
# Before beginning the experiments, the animals had been subjected for a week to this procedure in order to accustom them to handling.
# [5] = saline load, mean ± standard error, n = 5
# [6] = individual rats, base of rats 1-5: 235, 215, 260, 265, 250
compound,measurement,setting,value
"CC1c2ccccc2CN1NC(=O)c1ccc(Cl)c(S(N)(=O)=O)c1 (stereo not drawn) [CM/1, 1-methyl-2-(3'-sulphamyl-4'-chlorobenzamido)-isoindoline]",diuretic action,female Wistar rats [1],"marked diuretic action, which is stronger in the case of the product CM/1"
same,"ratio of sodium to potassium excretion, CM/1 compared with Indapamide",female Wistar rats [1],"higher in the group treated with the product CM/1, and the difference reaches statistical significance"
same,sodium and potassium excretion,female Wistar rats [1],increased
same,Excreted sodium/potassium ratio,female Wistar rats [1]; individual rats,1.651 and 2.262 and 2.277 and 2.188 and 1.746
same,Excreted sodium/potassium ratio,"female Wistar rats [1]; mean ± standard error, n = 5",2.024 ± 0.134
same,ml of urine collected in 12 hours,female Wistar rats [1]; individual rats,10.5 mL and 17.5 mL and 21.0 mL and 16.6 mL and 15.0 mL
same,ml of urine collected in 12 hours,"female Wistar rats [1]; mean ± standard error, n = 5",16.12 ± 1.71 mL
same,Potassium excretion,female Wistar rats [1]; individual rats,3.708 mEq/12h and 3.042 mEq/12h and 3.911 mEq/12h and 3.508 mEq/12h and 3.430 mEq/12h
same,Sodium excretion,female Wistar rats [1]; individual rats,6.123 mEq/12h and 6.880 mEq/12h and 8.906 mEq/12h and 7.675 mEq/12h and 5.989 mEq/12h
same,Potassium excretion,"female Wistar rats [1]; mean ± standard error, n = 5",3.5198 ± 0.145 mEq/12h
same,Sodium excretion,"female Wistar rats [1]; mean ± standard error, n = 5",7.114 ± 0.539 mEq/12h
same,damaging side-effects,male Wistar rat,no damagingside-effects
same,activity of CM/1 compared with Indapamide,male rats,more active than the Indapamide
same,diuretic and saluretic action,male rats,significant diuretic and saluretic action
same,RATIO Na/K (sodium to potassium excreted),"male rats; 4 h, average",2.6955
same,Cumulative percent excretion at 1 hour from load,male rats; individual rats,58.1% and 50.0% and 7.1% and 55.2% and 51.6%
same,Cumulative percent excretion at 2 hours from load,male rats; individual rats,109.7% and 78.6% and 57.1% and 110.4% and 125.8%
same,Cumulative percent excretion at 3 hours from load,male rats; individual rats,116.2% and 107.2% and 85.7% and 134.5% and 145.2%
same,Cumulative percent excretion at 4 hours from load,male rats; individual rats,116.2% and 121.4% and 114.3% and 134.5% and 167.8%
same,Potassium excretion,male rats; individual rats,0.00542 mEq/4h and 0.00512 mEq/4h and 0.00603 mEq/4h and 0.00856 mEq/4h and 0.01399 mEq/4h
same,Sodium excretion,male rats; individual rats,0.01374 mEq/4h and 0.01362 mEq/4h and 0.0125 mEq/4h and 0.01671 mEq/4h and 0.04889 mEq/4h
same,Cumulative percent excretion at 1 hour from load,male rats; mean of 5 rats,44.4%
same,Cumulative percent excretion at 2 hours from load,male rats; mean of 5 rats,96.32%
same,Cumulative percent excretion at 3 hours from load,male rats; mean of 5 rats,117.76%
same,Cumulative percent excretion at 4 hours from load,male rats; mean of 5 rats,130.84 ± 9.89%
same,Potassium excretion,male rats; mean of 5 rats,0.007824 mEq/4h
same,Sodium excretion,male rats; mean of 5 rats,0.02109 mEq/4h
same,DL50,"Swiss mouse; Swiss mouse, both sexes, 10 days observation","> 2,500 mg/kg"
same,deaths / toxic symptomatology,"Swiss mouse; mouse, individual doses up to 2,500 mg/kg","No deaths were observed either in the rat or in the mouse, nor was any particular toxic symptomatology found"
same,LD50 at 240 h,[2],> 2500 mg/kg
same,"diuretic and saluretic effect, CM/1 compared with Indapamide",female Wistar rats [3],considerably greater
same,"Urine excretion of load in percent of quantity administered (cumulative excretion), 1 hour",female Wistar rats [3]; individual rats,16.7% and 14.8% and 11.5% and 9.1% and 12.9%
same,"Urine excretion of load in percent of quantity administered (cumulative excretion), 2 hours",female Wistar rats [3]; individual rats,68.3% and 32.2% and 48.5% and 64.5% and 48.7%
same,"Urine excretion of load in percent of quantity administered (cumulative excretion), 3 hours",female Wistar rats [3]; individual rats,108.8% and 94.5% and 109.2% and 94.8% and 90.4%
same,"Urine excretion of load in percent of quantity administered (cumulative excretion), 1 hour","female Wistar rats [3]; mean ± standard error, n = 5",13.0 ± 1.31%
same,"Urine excretion of load in percent of quantity administered (cumulative excretion), 2 hours","female Wistar rats [3]; mean ± standard error, n = 5",52.44 ± 6.46%
same,"Urine excretion of load in percent of quantity administered (cumulative excretion), 3 hours","female Wistar rats [3]; mean ± standard error, n = 5",99.54 ± 3.93% and 99.5%
same,diuretic and saluretic effect,female Wistar rats [3]; relative to the controls,significant diuretic and saluretic effect relative to the controls
same,ratio of the sodium to the potassium excreted during the 3 hours,female Wistar rats [3]; saline load,5.91
same,Potassium excretion,"female Wistar rats [3]; saline load, individual rats",0.297 mEq/3h and 0.310 mEq/3h and 0.276 mEq/3h and 0.280 mEq/3h and 0.284 mEq/3h
same,Sodium excretion,"female Wistar rats [3]; saline load, individual rats",1.81 mEg/3h and 1.77 mEg/3h and 1.56 mEg/3h and 1.68 mEg/3h and 1.73 mEg/3h
same,Potassium excretion,female Wistar rats [3]; [5],0.289 ± 0.062 mEq/3h
same,Sodium excretion,female Wistar rats [3]; [5],1.71 ± 0.043 mEg/3h
same,excreted sodium and potassium,female Wistar rats [3]; versus controls,significantly higher than the controls
same,"Systolic arterial pressure measured bloodlessly, 7th day of treatment",[4]; [6],210 mm Hg and 205 mm Hg and 245 mm Hg and 225 mm Hg
same,"Systolic arterial pressure measured bloodlessly, 14th day of treatment",[4]; [6],195 mm Hg and 215 mm Hg and 235 mm Hg and 200 mm Hg and 220 mm Hg
same,"Systolic arterial pressure measured bloodlessly, 21st day of treatment",[4]; [6],195 mm Hg and 210 mm Hg and 220 mm Hg and 180 mm Hg
same,"Systolic arterial pressure measured bloodlessly, 28th day of treatment",[4]; [6],185 mm Hg and 210 mm Hg and 205 mm Hg
same,"Systolic arterial pressure measured bloodlessly, 7th day of treatment","[4]; mean, n = 5, base 245.0 ± 9.08",219.0 ± 7.31 mm Hg
same,"Systolic arterial pressure measured bloodlessly, 14th day of treatment","[4]; mean, n = 5, base 245.0 ± 9.08",213.0 ± 7.17 mm Hg
same,"Systolic arterial pressure measured bloodlessly, 21st day of treatment","[4]; mean, n = 5, base 245.0 ± 9.08",203.0 ± 7.00 mm Hg
same,"Systolic arterial pressure measured bloodlessly, 28th day of treatment","[4]; mean, n = 5, base 245.0 ± 9.08",198.0 ± 5.38 mm Hg
same,maximum reduction of the systolic arterial pressure,[4]; recording on the 28th day,20%
same,anti-hypertensive activity,"[4]; SHR, 28 days, 1.2 mg/kg/day",significantly reduces the systolic arterial pressure; also recorded: shows anti-hypertensive activity
